Values quoted from earlier work in patent US20260048005A1, “INJECTABLE THERMOSENSITIVE HYDROGELS FOR A SUSTAINED RELEASE OF IRON NANOCHELATORS” (The General Hospital Corporation, priority 2022, published 2026).

Conditions: in rodents

half-life: 5 to 15 min
Structure (SMILES): CC(=O)N(O)CCCCCNC(=O)CCC(=O)N(O)CCCCCNC(=O)CCC(=O)N(O)CCCCCN [DFO, deferoxamine]
